Structures can show the parent of a compound that is named as a salt.
Test system: influx of neutrophils to the lung in LPS-challenged rats
Assay: Rat LPS neutrophilia model
Assay type: in vivo
Conditions: LPS aerosol, intratracheal dosing, in at least one of the range of conditions tested, significance p<0.05
Procedure: Rat LPS Neutrophilia Model
The effect of compounds on the influx of neutrophils to the lung in LPS-challenged rats is evaluated as follows. The test compound is suspended in one of the following solutions: 0.5% tween 80/PBS, 0.5% tween 80/saline, 10% EtOH/saline (with pH adjusted to 2.0, or 8.0 with HCl, or unadjusted), Saline @pH 2.0, 6.5 or 8.0, 0.5% Tragacanth, 1% DMSO/20% Encapsin/Saline, or acidified 5% Tragacanth. The suspension process may be aided by the use of a glass homogenizer. For intratracheal administration, the animals are anesthetized with inhaled isoflurane and placed in a supine position, the trachea is intubated with a steel gavage needle (1.5 inch, 22 gauge, small ball) or a Penn-Century Microsprayer Aerosolizer (model IA-1B) and 200 ul of dosing solution is delivered. The animals are visually monitored during the recovery process, which typically occurs within two minutes. It is noted that the test compounds may be alternatively administered via the microsprayer in a dry powder blend with a suitable excipient, such as lactose.
Rats treated with compound or vehicle (15 min-24 hours pretreatment) are exposed to an LPS aerosol (100 ug/ml) for 15 min. Four hours later the rats are euthanized with pentobarbital (100 mg/kg, i.p.) and the airways are lavaged with 5 washes of 5 ml of phosphate buffered saline. The harvested cells are stained (Diffquick) and counted to determine total and differential cell data. […] Inhibition of neutrophil levels relative to no compound controls is calculated based on the differential counts.
The data is obtained as % inhibition using a particular concentration and pretreat time.

Compound	inhibition of neutrophilia
CCCNC(=O)c1ccc(C)c(-c2nc(NCCCN(CC)CC)nc3c2ccc(=O)n3-c2c(F)cccc2F)c1 [Example 122, 3-[2-{[3-(diethylamino)propyl]amino}-8-(2,6-difluorophenyl)-7-oxo-7,8-dihydropyrido[2,3-d]pyrimidin-4-yl]-4-methyl-N-propylbenzamide]	statistically nonsignificant inhibition
Cc1ccc(C(=O)Nc2nccs2)cc1-c1nc(NC2CC(C)(C)NC(C)(C)C2)nc2c1ccc(=O)n2-c1c(F)cccc1F [Example 67, 3-{8-(2,6-difluorophenyl)-7-oxo-2-[(2,2,6,6-tetramethyl-4-piperidinyl)amino]-7,8-dihydropyrido[2,3-d]pyrimidin-4-yl}-4-methyl-N-1,3-thiazol-2-ylbenzamide]	statistically nonsignificant inhibition
CNCCNc1nc(-c2cc(C(=O)NCCc3ccccc3)ccc2C)c2ccc(=O)n(-c3c(F)cccc3F)c2n1 [Example 29, 3-(8-(2,6-difluorophenyl)-2-{[2-(methylamino)ethyl]amino}-7-oxo-7,8-dihydropyrido[2,3-d]pyrimidin-4-yl)-4-methyl-N-(2-phenylethyl)benzamide]	statistically significant inhibition
Cc1ccc(NC(=O)c2cccc3cc[nH]c23)cc1-c1nc(NC(CO)CO)nc2c1ccc(=O)n2-c1c(F)cccc1F [Example 44, N-[3-(8-(2,6-difluorophenyl)-2-{[2-hydroxy-1-(hydroxymethyl)ethyl]amino}-7-oxo-7,8-dihydropyrido[2,3-d]pyrimidin-4-yl)-4-methylphenyl]-1H-indole-7-carboxamide trifluoroacetate]	statistically significant inhibition
Cc1ccc(C(=O)Nc2ccc(F)cc2)cc1-c1nc(NCCN(C)C)nc2c1ccc(=O)n2-c1c(F)cccc1F [Example 112, 3-(8-(2,6-difluorophenyl)-2-{[2-(dimethylamino)ethyl]amino}-7-oxo-7,8-dihydropyrido[2,3-d]pyrimidin-4-yl)-N-(4-fluorophenyl)-4-methylbenzamide]	statistically nonsignificant inhibition
Cc1ccc(C(=O)NC2CC2)cc1-c1nc(NCc2ncc[nH]2)nc2c1ccc(=O)n2-c1c(F)cccc1F [Example 23, N-cyclopropyl-3-{8-(2,6-difluorophenyl)-2-[(1H-imidazol-2-ylmethyl)amino]-7-oxo-7,8-dihydropyrido[2,3-d]pyrimidin-4-yl}-4-methylbenzamide]	statistically nonsignificant inhibition
CCCNC(=O)c1ccc(C)c(-c2nc(NCCNC)nc3c2ccc(=O)n3-c2c(F)cccc2F)c1 [56(d), 3-(8-(2,6-difluorophenyl)-2-{[2-(methylamino)ethyl]amino}-7-oxo-7,8-dihydropyrido[2,3-d]pyrimidin-4-yl)-4-methyl-N-propylbenzamide]	statistically significant inhibition
Cc1ccc(C(=O)Nc2nccs2)cc1-c1nc(NCc2ncc[nH]2)nc2c1ccc(=O)n2-c1c(F)cccc1F [79(c), 3-{8-(2,6-difluorophenyl)-2-[(1H-imidazol-2-ylmethyl)amino]-7-oxo-7,8-dihydropyrido[2,3-d]pyrimidin-4-yl}-4-methyl-N-1,3-thiazol-2-ylbenzamide]	statistically significant inhibition
Cc1ccc(C(=O)NCc2ccccc2)cc1-c1nc(NCc2ncc[nH]2)nc2c1ccc(=O)n2-c1c(F)cccc1F [Example 77, 3-{8-(2,6-difluorophenyl)-2-[(1H-imidazol-2-ylmethyl)amino]-7-oxo-7,8-dihydropyrido[2,3-d]pyrimidin-4-yl}-4-methyl-N-(phenylmethyl)benzamide]	statistically significant inhibition
CCCNC(=O)c1ccc(C)c(-c2nc(N3CCC(N)CC3)nc3c2ccc(=O)n3-c2c(F)cccc2F)c1 [Example 69, 3-[2-(4-amino-1-piperidinyl)-8-(2,6-difluorophenyl)-7-oxo-7,8-dihydropyrido[2,3-d]pyrimidin-4-yl]-4-methyl-N-propylbenzamide]	statistically significant inhibition
Cc1ccc(C(=O)Nc2nccs2)cc1-c1nc(NCCN(C)C)nc2c1ccc(=O)n2-c1c(F)cccc1F [Example 109, 3-(8-(2,6-difluorophenyl)-2-{[2-(dimethylamino)ethyl]amino}-7-oxo-7,8-dihydropyrido[2,3-d]pyrimidin-4-yl)-4-methyl-N-1,3-thiazol-2-ylbenzamide]	statistically significant inhibition
Cc1ccc(C(=O)NC2CC2)cc1-c1nc(N2CCC(N)CC2)nc2c1ccc(=O)n2-c1c(F)cccc1F [Example 22, 3-[2-(4-amino-1-piperidinyl)-8-(2,6-difluorophenyl)-7-oxo-7,8-dihydropyrido[2,3-d]pyrimidin-4-yl]-N-cyclopropyl-4-methylbenzamide]	statistically significant inhibition
Cc1ccc(C(=O)Nc2ccc(F)cc2)cc1-c1nc(N(C)CCN(C)C)nc2c1ccc(=O)n2-c1c(F)cccc1F [Example 99, 3-{8-(2,6-difluorophenyl)-2-[[2-(dimethylamino)ethyl](methyl)amino]-7-oxo-7,8-dihydropyrido[2,3-d]pyrimidin-4-yl}-N-(4-fluorophenyl)-4-methylbenzamide]	statistically nonsignificant inhibition
Cc1ccc(C(=O)Nc2nccs2)cc1-c1nc(NCCCNC(C)(C)C)nc2c1ccc(=O)n2-c1c(F)cccc1F [Example 102, 3-[8-(2,6-difluorophenyl)-2-({3-[(1,1-dimethylethyl)amino]propyl}amino)-7-oxo-7,8-dihydropyrido[2,3-d]pyrimidin-4-yl]-4-methyl-N-1,3-thiazol-2-ylbenzamide]	statistically nonsignificant inhibition
CCN(CC)CCCNc1nc(-c2cc(C(=O)NC3CCC3)ccc2C)c2ccc(=O)n(-c3c(F)cccc3F)c2n1 [Example 137, N-cyclobutyl-3-[2-{[3-(diethylamino)propyl]amino}-8-(2,6-difluorophenyl)-7-oxo-7,8-dihydropyrido[2,3-d]pyrimidin-4-yl]-4-methylbenzamide trifluoroacetate]	statistically significant inhibition
Cc1ccc(C(=O)Nc2nccs2)cc1-c1nc(N2CCC(N)CC2)nc2c1ccc(=O)n2-c1c(F)cccc1F [Example 73, 3-[2-(4-amino-1-piperidinyl)-8-(2,6-difluorophenyl)-7-oxo-7,8-dihydropyrido[2,3-d]pyrimidin-4-yl]-4-methyl-N-1,3-thiazol-2-ylbenzamide]	statistically significant inhibition
Cc1ccc(C(=O)NCC(F)(F)F)cc1-c1nc(N2CCC(N3CCC(C)CC3)CC2)nc2c1ccc(=O)n2-c1c(F)cccc1F [Example 172, 3-[8-(2,6-difluorophenyl)-2-(4-methyl-1,4′-bipiperidin-1′-yl)-7-oxo-7,8-dihydropyrido[2,3-d]pyrimidin-4-yl]-4-methyl-N-(2,2,2-trifluoroethyl)benzamide]	inactive
Cc1ccc(C(=O)Nc2nccs2)cc1-c1nc(N(C)CCCN(C)C)nc2c1ccc(=O)n2-c1c(F)cccc1F [Example 107, 3-{8-(2,6-difluorophenyl)-2-[[3-(dimethylamino)propyl](methyl)amino]-7-oxo-7,8-dihydropyrido[2,3-d]pyrimidin-4-yl}-4-methyl-N-1,3-thiazol-2-ylbenzamide]	statistically significant inhibition
CCN(CC)CCCNc1nc(-c2cc(C(=O)NCC3CCCCC3)ccc2C)c2ccc(=O)n(-c3c(F)cccc3F)c2n1 [Example 135, N-(cyclohexylmethyl)-3-[2-{[3-(diethylamino)propyl]amino}-8-(2,6-difluorophenyl)-7-oxo-7,8-dihydropyrido[2,3-d]pyrimidin-4-yl]-4-methylbenzamidetrifluoroacetate]	inactive
CCN(CC)CCCNc1nc(-c2cc(C(=O)NCC3CCCC3)ccc2C)c2ccc(=O)n(-c3c(F)cccc3F)c2n1 [Example 132, N-(cyclopentylmethyl)-3-[2-{[3-(diethylamino)propyl]amino}-8-(2,6-difluorophenyl)-7-oxo-7,8-dihydropyrido[2,3-d]pyrimidin-4-yl]-4-methylbenzamidetrifluoroacetate]	statistically nonsignificant inhibition
Cc1ccc(C(=O)NC2CCCC2)cc1-c1nc(NCc2ncc[nH]2)nc2c1ccc(=O)n2-c1c(F)cccc1F [Example 76, N-cyclopentyl-3-{8-(2,6-difluorophenyl)-2-[(1H-imidazol-2-ylmethyl)amino]-7-oxo-7,8-dihydropyrido[2,3-d]pyrimidin-4-yl}-4-methylbenzamide]	statistically nonsignificant inhibition
Cc1ccc(C(=O)NCCc2ccccc2)cc1-c1nc(NC2CC(C)(C)NC(C)(C)C2)nc2c1ccc(=O)n2-c1c(F)cccc1F [Example 28, 3-{8-(2,6-difluorophenyl)-7-oxo-2-[(2,2,6,6-tetramethyl-4-piperidinyl)amino]-7,8-dihydropyrido[2,3-d]pyrimidin-4-yl}-4-methyl-N-(2-phenylethyl)benzamide]	statistically nonsignificant inhibition

From US20100144755A1 (Glaxo Group Limited, priority 2006, published 2010)
